pIC50: −log10 of the molar value.
Legend:
[1] = target: Tyrosine-protein kinase JAK2 (Homo sapiens, UniProt O60674); test: Inhibition of human JAK2 using poly(Glu:Tyr)(4:1) as substrate preincubated for 20 mins followed by [gamma33P]ATP addition measured after 120 mins by ion exchange filter paper method
Histone deacetylase 1 = Histone deacetylase 1 (Homo sapiens, UniProt Q13547); test: Inhibition of HDAC1 (unknown origin) using Arg-His-Lys-Lys(Ac) as substrate preincubated with enzyme followed by substrate addition for 2 hrs and measured for 1.5 hrs at 15 mins time interval by fluorescence assay
Chain of Histone deacetylase 1 (Q13547 whole entry): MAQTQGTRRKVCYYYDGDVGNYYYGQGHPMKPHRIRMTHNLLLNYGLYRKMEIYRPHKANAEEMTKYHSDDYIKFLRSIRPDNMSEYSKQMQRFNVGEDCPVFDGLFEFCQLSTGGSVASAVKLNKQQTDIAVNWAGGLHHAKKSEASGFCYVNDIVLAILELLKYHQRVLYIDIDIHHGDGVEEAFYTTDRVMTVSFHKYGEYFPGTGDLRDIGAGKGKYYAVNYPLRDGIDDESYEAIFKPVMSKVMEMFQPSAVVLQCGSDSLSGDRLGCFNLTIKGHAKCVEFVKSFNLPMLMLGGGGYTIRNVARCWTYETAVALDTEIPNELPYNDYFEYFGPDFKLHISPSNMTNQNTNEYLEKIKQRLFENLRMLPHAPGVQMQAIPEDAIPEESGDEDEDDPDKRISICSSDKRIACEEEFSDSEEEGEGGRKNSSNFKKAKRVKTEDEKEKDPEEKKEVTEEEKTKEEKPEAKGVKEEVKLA

[2] = target: T1, Protein deacetylase HDAC6 (Homo sapiens, UniProt Q9UBN7); test: Inhibition of HDAC6 (unknown origin) using Arg-His-Lys-Lys(Ac) as substrate preincubated with enzyme followed by substrate addition for 2 hrs and measured for 1.5 hrs at 15 mins time interval by fluorescence assay
T1 sequence (Q9UBN7 whole entry): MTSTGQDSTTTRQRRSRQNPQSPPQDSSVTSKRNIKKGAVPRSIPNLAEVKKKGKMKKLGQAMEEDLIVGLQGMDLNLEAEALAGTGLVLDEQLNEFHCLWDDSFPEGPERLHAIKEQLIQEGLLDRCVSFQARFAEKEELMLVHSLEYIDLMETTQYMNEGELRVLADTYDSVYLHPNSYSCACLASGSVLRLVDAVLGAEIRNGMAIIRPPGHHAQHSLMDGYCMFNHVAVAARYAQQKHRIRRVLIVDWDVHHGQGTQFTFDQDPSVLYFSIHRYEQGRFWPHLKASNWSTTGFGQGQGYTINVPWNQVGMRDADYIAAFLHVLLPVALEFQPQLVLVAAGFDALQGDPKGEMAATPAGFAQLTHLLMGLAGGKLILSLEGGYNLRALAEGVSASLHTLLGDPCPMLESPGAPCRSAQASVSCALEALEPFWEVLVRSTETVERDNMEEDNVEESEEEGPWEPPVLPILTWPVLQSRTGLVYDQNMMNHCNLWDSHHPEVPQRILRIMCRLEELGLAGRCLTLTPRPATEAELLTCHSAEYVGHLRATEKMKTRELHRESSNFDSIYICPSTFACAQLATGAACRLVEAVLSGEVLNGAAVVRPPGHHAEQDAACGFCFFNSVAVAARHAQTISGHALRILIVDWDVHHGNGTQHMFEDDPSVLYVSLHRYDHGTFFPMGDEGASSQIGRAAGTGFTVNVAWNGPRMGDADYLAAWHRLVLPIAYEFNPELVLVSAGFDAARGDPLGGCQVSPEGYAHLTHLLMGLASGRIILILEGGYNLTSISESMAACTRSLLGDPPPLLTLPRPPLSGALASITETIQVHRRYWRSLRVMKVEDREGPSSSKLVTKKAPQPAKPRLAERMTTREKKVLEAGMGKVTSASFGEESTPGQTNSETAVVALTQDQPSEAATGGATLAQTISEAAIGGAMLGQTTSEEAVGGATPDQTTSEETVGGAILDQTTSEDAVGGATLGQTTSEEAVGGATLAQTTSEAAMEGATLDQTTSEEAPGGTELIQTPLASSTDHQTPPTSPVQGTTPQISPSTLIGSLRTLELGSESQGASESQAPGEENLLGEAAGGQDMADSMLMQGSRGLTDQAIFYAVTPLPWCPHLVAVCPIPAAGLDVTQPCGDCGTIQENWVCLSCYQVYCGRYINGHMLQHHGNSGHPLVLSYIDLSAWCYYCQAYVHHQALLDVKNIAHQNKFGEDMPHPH

HCT-116 = test: Antiproliferative activity against human HCT116 cells after 72 hrs by MTT assay; assay type: functional, cell-based; settings: HCT-116, 72 h
MDA-MB-231 = test: Antiproliferative activity against human MDA-MB-231 cells after 72 hrs by MTT assay; assay type: functional, cell-based; settings: MDA-MB-231, 72 h
MCF7 = test: Antiproliferative activity against human MCF7 cells after 72 hrs by MTT assay; assay type: functional, cell-based; settings: MCF7, 72 h
PC-3 = test: Antiproliferative activity against human PC3 cells after 72 hrs by MTT assay; assay type: functional, cell-based; settings: PC-3, 72 h
[3] = Antiproliferative activity against human AC10 cells after 72 hrs by MTT assay; assay type: cell-based
[4] = Antiproliferative activity against mouse TAMH cells after 72 hrs by MTT assay; assay type: cell-based
[5] = Selectivity index, ratio of CC50 for human AC10 cells to IC50 for human HCT116 cells; assay type: toxicity; settings: AC10 cells (CC50) and HCT116 cells (IC50)
[6] = Selectivity index, ratio of CC50 for mouse TAMH cells to IC50 for human HCT116 cells; assay type: toxicity; settings: TAMH cells (CC50) and HCT116 cells (IC50)
[7] = Selectivity index, ratio of CC50 for human AC10 cells to IC50 for human MDA-MB-231 cells; assay type: toxicity; settings: AC10 cells (CC50) and MDA-MB-231 cells (IC50)
[8] = Selectivity index, ratio of CC50 for mouse TAMH cells to IC50 for human MDA-MB-231 cells; assay type: toxicity; settings: TAMH cells (CC50) and MDA-MB-231 cells (IC50)
[9] = Selectivity index, ratio of CC50 for human AC10 cells to IC50 for human MCF7 cells; assay type: toxicity; settings: AC10 cells (CC50) and MCF7 cells (IC50)
[10] = Selectivity index, ratio of CC50 for mouse TAMH cells to IC50 for human MCF7 cells; assay type: toxicity; settings: TAMH cells (CC50) and MCF7 cells (IC50)
[11] = Selectivity index, ratio of CC50 for human AC10 cells to IC50 for human PC3 cells; assay type: toxicity; settings: AC10 cells (CC50) and PC3 cells (IC50)
[12] = Selectivity index, ratio of CC50 for mouse TAMH cells to IC50 for human PC3 cells; assay type: toxicity; settings: TAMH cells (CC50) and PC3 cells (IC50)
HEL 92.1.7 = test: cells; assay type: functional, cell-based; settings: Homo sapiens, HEL 92.1.7, 72 h
Description: Antiproliferative activity against human HEL 92.1.7 cells after 72 hrs by MTT assay

Jurkat = test: Antiproliferative activity against human Jurkat cells after 72 hrs by MTT assay; assay type: functional, cell-based
KMS-12-BM = test: Antiproliferative activity against human KMS-12-BM cells after 72 hrs by MTT assay; assay type: functional, cell-based
[13] = Antiproliferative activity against human XG6 cells after 72 hrs by MTT assay; assay type: functional, cell-based; settings: XG6, 72 h
[14] = Selectivity index, ratio of CC50 for human AC10 cells to IC50 for human HEL 92.1.7 cells; assay type: toxicity; settings: AC10 cells (CC50) and HEL 92.1.7 cells (IC50)
[15] = Selectivity index, ratio of CC50 for mouse TAMH cells to IC50 for human HEL 92.1.7 cells; assay type: toxicity; settings: TAMH cells (CC50) and HEL 92.1.7 cells (IC50)
[16] = Selectivity index, ratio of CC50 for human AC10 cells to IC50 for human Jurkat cells; assay type: toxicity; settings: AC10 cells (CC50) and Jurkat cells (IC50)
[17] = Selectivity index, ratio of CC50 for mouse TAMH cells to IC50 for human Jurkat cells; assay type: toxicity; settings: TAMH cells (CC50) and Jurkat cells (IC50)
[18] = Selectivity index, ratio of CC50 for human AC10 cells to IC50 for human KMS-12-BM cells; assay type: toxicity; settings: AC10 cells (CC50) and KMS-12-BM cells (IC50)
[19] = Selectivity index, ratio of CC50 for mouse TAMH cells to IC50 for human KMS-12-BM cells; assay type: toxicity; settings: TAMH cells (CC50) and KMS-12-BM cells (IC50)
[20] = Selectivity index, ratio of CC50 for human AC10 cells to IC50 for human XG6 cells; assay type: toxicity; settings: AC10 cells (CC50) and XG6 cells (IC50)
[21] = Selectivity index, ratio of CC50 for mouse TAMH cells to IC50 for human XG6 cells; assay type: toxicity; settings: TAMH cells (CC50) and XG6 cells (IC50)

Chain of Tyrosine-protein kinase JAK2 (O60674 whole entry): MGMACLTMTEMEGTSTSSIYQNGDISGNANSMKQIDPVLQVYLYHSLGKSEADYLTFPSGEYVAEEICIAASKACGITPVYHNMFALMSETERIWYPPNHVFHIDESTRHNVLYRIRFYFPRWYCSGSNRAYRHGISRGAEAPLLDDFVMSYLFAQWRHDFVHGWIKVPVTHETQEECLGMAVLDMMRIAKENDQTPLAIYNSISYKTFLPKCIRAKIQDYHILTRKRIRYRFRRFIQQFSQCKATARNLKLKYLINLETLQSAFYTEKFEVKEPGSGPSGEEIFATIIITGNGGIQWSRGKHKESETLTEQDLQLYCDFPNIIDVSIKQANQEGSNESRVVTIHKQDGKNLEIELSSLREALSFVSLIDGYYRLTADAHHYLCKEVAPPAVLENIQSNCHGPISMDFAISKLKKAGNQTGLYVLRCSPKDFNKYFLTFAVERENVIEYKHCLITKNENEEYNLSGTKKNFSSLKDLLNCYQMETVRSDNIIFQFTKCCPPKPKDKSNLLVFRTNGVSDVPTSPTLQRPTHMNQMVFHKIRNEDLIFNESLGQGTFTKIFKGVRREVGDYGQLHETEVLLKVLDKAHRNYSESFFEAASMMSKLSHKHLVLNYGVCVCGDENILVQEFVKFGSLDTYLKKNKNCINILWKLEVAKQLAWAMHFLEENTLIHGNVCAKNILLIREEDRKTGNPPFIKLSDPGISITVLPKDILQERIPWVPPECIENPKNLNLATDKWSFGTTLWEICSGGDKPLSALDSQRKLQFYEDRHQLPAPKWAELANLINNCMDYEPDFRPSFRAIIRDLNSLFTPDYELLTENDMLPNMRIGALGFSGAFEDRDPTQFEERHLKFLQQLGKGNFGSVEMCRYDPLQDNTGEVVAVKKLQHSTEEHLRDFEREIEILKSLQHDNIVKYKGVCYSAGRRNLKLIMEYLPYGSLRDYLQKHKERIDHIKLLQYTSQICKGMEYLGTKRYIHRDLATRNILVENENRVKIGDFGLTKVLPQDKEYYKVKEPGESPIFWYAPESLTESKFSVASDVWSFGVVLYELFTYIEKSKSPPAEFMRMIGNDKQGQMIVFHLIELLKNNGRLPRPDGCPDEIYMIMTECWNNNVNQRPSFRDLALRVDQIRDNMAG

SMILES	pIC50 [1]	pIC50 (Histone deacetylase 1)	pIC50 [2]	pIC50 (HCT-116)	pIC50 (MDA-MB-231)	pIC50 (MCF7)	pIC50 (PC-3)	pIC50 (HEL 92.1.7)	pIC50 (Jurkat)	CC50 at 72 h [3]	CC50 at 72 h [4]	selectivity ratio [5]	selectivity ratio [6]	selectivity ratio [7]	selectivity ratio [8]	selectivity ratio [9]	selectivity ratio [10]	selectivity ratio [11]	pIC50 (KMS-12-BM)	pIC50 [13]	other results
CC(=O)Nc1ccc(-c2ccnc(Nc3cccc(OCCCCCC(=O)NO)c3)n2)cc1	8.47	6.20	8.62	6.10	5.91	5.59	5.78	5.74	5.92	2930 nM	8860 nM	3.71	11.2	2.36	7.15	1.15	3.47	1.77	6.70	5.43	selectivity ratio [12]: 5.34; selectivity ratio [14]: 1.61; selectivity ratio [15]: 4.85; selectivity ratio [16]: 1.35; selectivity ratio [17]: 7.45; selectivity ratio [18]: 14.7; selectivity ratio [19]: 44.3; selectivity ratio [20]: 0.79; selectivity ratio [21]: 2.39
CC(CCCCCC(=O)NO)n1cc(-c2ncnc3[nH]ccc23)cn1 (configuration not stated)	–	–	–	5.63	6.10	6.08	5.62	5.88	6.33	–	–	–	–	–	–	–	–	–	5.69	5.70	–
CC(=O)Nc1ccc(-c2ccnc(Nc3cccc(NC(=O)CCCCCCC(=O)NO)c3)n2)cc1	8.04	7.49	9.09	5.94	5.61	6.49	6.47	< 5.00	< 5.00	19500 nM	12500 nM	9.91	6.36	12.7	8.14	–	–	–	–	–	–
CC(=O)Nc1ccc(-c2ccnc(Nc3ccc(OCCCCCCCC(=O)NO)cc3)n2)cc1	–	5.77	7.85	5.74	5.27	5.26	5.33	5.41	5.46	3500 nM	9330 nM	–	–	–	–	–	–	–	5.71	4.99	–

The remaining compounds from weak to strong by pIC50 (HCT-116), led by results:

pIC50 [1]	pIC50 (Histone deacetylase 1)	pIC50 [2]	pIC50 (HCT-116)	pIC50 (MDA-MB-231)	pIC50 (MCF7)	pIC50 (PC-3)	pIC50 (HEL 92.1.7)	pIC50 (Jurkat)	SMILES	CC50 at 72 h [3]	CC50 at 72 h [4]	selectivity ratio [5]	selectivity ratio [6]	selectivity ratio [7]	selectivity ratio [8]	selectivity ratio [9]	selectivity ratio [10]	selectivity ratio [11]	pIC50 (KMS-12-BM)	pIC50 [13]	other results
8.53	5.34	8.01	4.74	4.94	4.51	4.48	5.05	5.00	CC(=O)Nc1ccc(-c2nc(Nc3cccc(OCCCCCCCC(=O)NO)c3)ncc2C)cc1	20100 to 20700 nM	9140 nM	1.12	0.5	1.81	0.8	0.67	0.3	0.63	6.27	5.08	selectivity ratio [12]: 0.28; selectivity ratio [14]: 2.31; selectivity ratio [15]: 1.02; selectivity ratio [16]: 0.23; selectivity ratio [17]: 0.91; selectivity ratio [18]: 38.3; selectivity ratio [19]: 17; selectivity ratio [20]: 2.49; selectivity ratio [21]: 1.1
7.02	6.85	8.21	5.77	5.41	5.32	5.39	–	–	CN1CCN(CC(=O)Nc2ccc(-c3ccnc(Nc4ccc(OCCCCCCC(=O)NO)cc4)n3)cc2)CC1	4100 nM	8070 nM	2.43	4.78	1.06	2.08	0.85	1.67	1	–	–	selectivity ratio [12]: 1.97
–	7.05	8.89	5.94	5.99	5.70	5.82	5.87	5.99	CC(=O)Nc1ccc(-c2ccnc(Nc3ccc(OCCCCCC(=O)NO)cc3)n2)cc1	5740 nM	7390 nM	–	–	–	–	–	–	–	7.15	5.97	–

From ChEMBL document CHEMBL4265943, “Design and synthesis of potent dual inhibitors of JAK2 and HDAC based on fusing the pharmacophores of XL019 and vorinostat” (Eur J Med Chem, 2018)
